Our source for the Potency EC50, IC50 and DC50 values is patent US20250277012A1 (Protagonist Therapeutics, Inc., priority 2021, published 2025).

The target of assay [1] is human ferroportin (SLC40A1) fused in frame with the GFP protein (human) (UniProt Q9NP59). The assay is described as follows: cell-based or functional assay.
The target of assay [2] is T1, ferroportin (Homo sapiens, UniProt Q9NP59).
T1 sequence (Q9NP59 1-571): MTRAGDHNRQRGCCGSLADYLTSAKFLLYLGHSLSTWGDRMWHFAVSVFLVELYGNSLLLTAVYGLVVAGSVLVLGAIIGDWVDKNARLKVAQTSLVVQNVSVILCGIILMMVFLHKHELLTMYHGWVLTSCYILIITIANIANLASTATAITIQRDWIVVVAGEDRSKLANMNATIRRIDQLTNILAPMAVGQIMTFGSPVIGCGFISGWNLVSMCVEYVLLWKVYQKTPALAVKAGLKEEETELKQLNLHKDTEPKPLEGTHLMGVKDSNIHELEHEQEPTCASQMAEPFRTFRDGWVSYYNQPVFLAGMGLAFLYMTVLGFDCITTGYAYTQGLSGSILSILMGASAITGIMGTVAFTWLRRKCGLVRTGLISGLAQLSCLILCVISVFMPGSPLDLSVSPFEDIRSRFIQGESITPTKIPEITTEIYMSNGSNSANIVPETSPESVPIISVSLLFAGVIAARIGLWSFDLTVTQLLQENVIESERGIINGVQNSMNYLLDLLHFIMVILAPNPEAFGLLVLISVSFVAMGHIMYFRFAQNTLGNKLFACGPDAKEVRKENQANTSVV
The assay is described as follows: T47D cell-based ferroportin internalization assay in presence of mouse serum albumin (MSA). Further details: a human breast carcinoma adherent cell line which endogenously expresses ferroportin; host or cells: T47D. The procedure, abridged: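 Peptide potency for inducing ferroportin internalization was measured in T47D cells in the presence of serum albumin. Cells grown in RPMI with fetal bovine serum were seeded in 96-well plates at 80-100 k cells per well in 100 ul and rested overnight. Dilution series of test peptides were preincubated 30 min at room temperature, then added to the cells after the medium was aspirated.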

Assay [3] addresses T1, ferroportin. In words: FPN activity assay: ferroportin-GFP internalization/degradation in HEK293 cells. Further details: expressed in transfected cells. Format: cell-based. The settings on record: read-out: FPN IC50. As for the experimental part:
Following internalization, the ferroporin protein is degraded.
A retro inverse peptide is a peptide with a reversed sequence in all D amino acids. An example is that Hy-Glu-Thr-His-NH2 becomes Hy-DHis-DThr-DGlu-NH2. The EC50 of these reference compounds for ferroportin internalization/degradation was determined according to the FPN activity assay described above. These peptides served as control standards.

The mark [4] stands for this setting: T47D internalization assay in presence of mouse serum albumin (MSA), Table 6E.
Setting [5] is: ferroportin-GFP internalization/degradation, HEK293 cells, Table 6E.
The mark [6] stands for this setting: T47D cells, 0.5% mouse serum albumin, 1 hr incubation.
[7] abbreviates: ferroportin-GFP HEK293 cells, at least 18 hours.
[8] abbreviates: Table 6E, T47D internalization assay with MSA.
Setting [9] is: Table 6E, ferroportin-GFP internalization/degradation, at least 18 hours incubation.

Read-outs that look alike come from different tables or passages of the source. Positions of bridges follow the written chain, without caps; N, C: chain ends. Non-standard residues stand in square brackets, D forms with d. Residues, ends and D or L forms follow the SMILES beside them. Groups on a side chain read outwards from the residue. *: point of attachment. X1 = C[N+](C)(CCNC(=O)CCCCCCCCCCCCCCCCC(=O)O)CC(=O)*; Ala(quinolin-3-yl) = N[C@@H](Cc1cnc2ccccc2c1)C(=O)O; C18 diacid = O=C(O)CCCCCCCCCCCCCCCCC(=O)*; Dip = N[C@H](C(=O)O)C(c1ccccc1)c1ccccc1; Palmitoyl = CCCCCCCCCCCCCCCC(=O)*; NMeF = CN[C@@H](Cc1ccccc1)C(=O)O; β3hF = N[C@H](CC(=O)O)Cc1ccccc1; NMeK = CN[C@@H](CCCCN)C(=O)O; Isovaleryl = CC(C)CC(=O)*; NMeS = CN[C@@H](CO)C(=O)O; Dap = NC[C@H](N)C(=O)O; AEEA = NCCOCCOCC(=O)O; Ahx = NCCCCCC(=O)O A value given as a limit tells only on which side of the number the result lay.

Hepcidin (ligand) came in with a Potency EC50 in assay [1] of 34 nM.

As usually defined, the IC50 is the point on the concentration scale where inhibition reaches its midpoint. With `CC(C)CC(=O)N[C@@H](CCC(=O)O)C(=O)N[C@H](C(=O)N[C@@H](Cc1c[nH]cn1)C(=O)N[C@H](C(=O)N1CCC[C@H]1C(=O)N[C@H]1CSSC[C@@H](C(=O)N(C)[C@@H](CCCCNC(=O)COCCOCCNC(=O)COCCOCCNC(=O)[C@H](CN)NC(=O)CCCCCCCCCCCCCCCCC(=O)O)C(=O)N[C@H](CC(=O)N[C@H](CCCCN)C(=O)N(C)[C@@H](CO)C(N)=O)Cc2ccccc2)NC1=O)C(c1ccccc1)c1ccccc1)[C@@H](C)O` [compound 260] (Isovaleryl-ETH[Dip]PCC[NMeK]([AEEA-AEEA-Dap-C18 diacid])[β3hF][dK][NMeS]-NH2; disulfide 6-7), the 50% inhibitory concentration (IC50) on ferroportin [2] (setting [4]) lay in the range of 10 to 100 nM. The DC50 on ferroportin [3] (setting [5]) lay within 10 to 100 nM.

Turning to `CCCCCCCCCCCCCCCC(=O)NCCCCCC(=O)NCCCC[C@H](NC(=O)[C@@H]1CSSC[C@H](NC(=O)[C@@H]2CCCN2C(=O)[C@@H](NC(=O)[C@H](Cc2c[nH]cn2)NC(=O)[C@@H](NC(=O)[C@H](CCC(=O)OC)NC(=O)CC(C)C)[C@@H](C)O)C(c2ccccc2)c2ccccc2)C(=O)N1)C(=O)N[C@H](CC(=O)N[C@H](CCCCN)C(N)=O)Cc1ccccc1` [Compd 40] (Isovaleryl-E(OMe)TH[Dip]PCCK([Ahx-Palmitoyl])[β3hF][dK]-NH2; disulfide 6-7), on ferroportin [2] (setting [6]), the half-inhibitory concentration (IC50) lay within 1 to 10 nM. In addition, the DC50 at ferroportin [3] (setting [7]) lay in the range of 10 to 100 nM.

For the compound `CC[C@H](C)[C@@H]1NC(=O)[C@@H](NC(=O)[C@@H]2CCCN2C(=O)[C@@H](NC(=O)[C@H](Cc2c[nH]cn2)NC(=O)[C@@H](NC(=O)[C@H](CCC(=O)O)NC(=O)CC(C)C)[C@@H](C)O)C(c2ccccc2)c2ccccc2)CSSC[C@@H](C(N)=O)NC(=O)C[C@H](Cc2ccccc2)NC(=O)[C@H](CCCCNC(=O)COCCOCCNC(=O)COCCOCCNC(=O)CCCCCNC(=O)CCCCCCCCCCCCCCCCC(=O)O)NC1=O` [Compd 23] (Isovaleryl-ETH[Dip]PCIK([AEEA-AEEA-Ahx-C18 diacid])[β3hF]C-NH2; disulfide 6-10), on ferroportin [2] (setting [6]), the IC50 lay in the range of 10 to 100 nM. For the same compound, the DC50 on ferroportin [3] (setting [7]) fell in the range of 10 to 100 nM.

Take `CCCCCCCCCCCCCCCC(=O)NCCCC[C@H]1C(=O)N[C@@H](C(c2ccccc2)c2ccccc2)C(=O)N[C@@H](C(N)=O)CCCCNC(=O)CC[C@H](NC(=O)CC(C)C)C(=O)N[C@@H]([C@@H](C)O)C(=O)N[C@@H](Cc2c[nH]cn2)C(=O)N[C@@H](C(c2ccccc2)c2ccccc2)C(=O)N2CCC[C@H]2C(=O)N[C@H]2CSSC[C@H](NC2=O)C(=O)N1C` [compound 142] (Isovaleryl-ETH[Dip]PCC[NMeK](Palmitoyl)[Dip][dK]-NH2; lactam 1-10; disulfide 6-7): the IC50 on ferroportin [2] (setting [8]) is 10 to 100 nM. Further, at ferroportin [3] (setting [9]), the DC50 lay in the range of 1 to 10 nM.

Regarding `CC(C)CC(=O)N[C@@H](CCC(=O)O)C(=O)N[C@H](C(=O)N[C@@H](Cc1cnc2ccccc2c1)C(=O)N[C@H](C(=O)N1CCC[C@H]1C(=O)N[C@H]1CSSC[C@@H](C(=O)N(C)[C@@H](CCCCNC(=O)COCCOCCNC(=O)COCCOCCNC(=O)[C@H](CN)NC(=O)CCCCCCCCCCCCCCCCC(=O)O)C(=O)N[C@H](CC(=O)N[C@H](CCCCN)C(N)=O)Cc2ccccc2)NC1=O)C(c1ccccc1)c1ccccc1)[C@@H](C)O` [compound 296] (Isovaleryl-ET[Ala(quinolin-3-yl)][Dip]PCC[NMeK]([AEEA-AEEA-Dap-C18 diacid])[β3hF][dK]-NH2; disulfide 6-7), the IC50 on ferroportin [2] (setting [4]) is over 500 nM. Also, the DC50 on ferroportin [3] (setting [5]) is over 500 nM.

Take `COC(=O)CC[C@H](NC(=O)CC(C)C)C(=O)N[C@@H](CO)C(=O)N[C@@H](Cc1c[nH]cn1)C(=O)N(C)[C@@H](Cc1ccccc1)C(=O)N1CCC[C@H]1C(=O)N[C@H]1CSSC[C@@H](C(=O)N(C)[C@@H](CCCCNC(=O)CCCCCNC(=O)C[N+](C)(C)CCNC(=O)CCCCCCCCCCCCCCCCC(=O)O)C(=O)N[C@H](C(=O)N[C@H](CCCCN)C(N)=O)C(c2ccccc2)c2ccccc2)NC1=O` [compound 148] (Isovaleryl-E(OMe)SH[NMeF]PCC[NMeK]([Ahx-X1])[Dip][dK]-NH2; disulfide 6-7): the IC50 at ferroportin [2] (setting [8]) is over 500 nM. For the same compound, the DC50 on ferroportin [3] (setting [9]) was over 500 nM.
